Reference: US20250032525A1 (priority 2021, published 2025)
Where two headings read alike, the source gives them in different places.

Columns and labels:
[1] = system: MES-SA/Dx5 xenografts; experiment: MES-SA/Dx5 xenograft tumors in mice; format: in vivo, NSG mice; settings: multidrug resistant MES-SA/Dx5 tumors; DOX 2 mg/kg iv., LiPyDau 0.5 mg/kg iv. once per week
Procedure: 2×10^6 cells from each cell line in 200 μl serum-free culture media DMEM were inoculated into NOD.Cg-Prkdc^scid Il2rg^tm1Wjl/SzJ (NSG) mice subcutaneously in the left flank and treatment was initiated when tumors reached 200 mm^3. Mice were treated with saline (n=3 per each cell lines). […] The size of the tumors was measured every second day with a digital caliper.

[2] = system: UO-31; settings: UO-31, NCI-60 database, sulforhodamine B; read-out: Cytotoxic IC50; cited from earlier work
[3] = system: HCT-116; settings: HCT-116, NCI-60 database, sulforhodamine B; read-out: Cytotoxic IC50; cited from earlier work
[4] = system: BT-549; settings: BT-549, NCI-60 database, sulforhodamine B; read-out: Cytotoxic IC50; cited from earlier work
[5] = system: HT29; settings: HT29, NCI-60 database, sulforhodamine B; read-out: Cytotoxic IC50; cited from earlier work
[6] = system: PANC-1; settings: PANC-1, from Varbanov et al. (2017), PrestoBlue; read-out: Cytotoxic IC50; cited from earlier work
[7] = system: SW-620; settings: SW-620, NCI-60 database, sulforhodamine B; read-out: Cytotoxic IC50; cited from earlier work
[8] = system: NCI-60 cell lines; experiment: NCI DTP NCI-60 cell line screen database (sulforhodamine B), panel; format: cell-based; settings: Homo sapiens
[9] = system: HOP-62; settings: HOP-62, NCI-60 database, sulforhodamine B; read-out: Cytotoxic IC50; cited from earlier work
[10] = system: A431-B1; experiment: In vitro cytotoxicity; format: cell-based
Description: (§1) Experiments were repeated at least 3 times.

[11] = system: P388; experiment: In vitro cytotoxicity; format: cell-based; settings: Mus musculus
Description: as §1

[12] = system: MDA-MB-468; experiment: In vitro cytotoxicity; format: cell-based; settings: Homo sapiens; MDA-MB-468 breast cancer cell line
Description: as §1

[13] = system: HCC-2998; settings: HCC-2998, NCI-60 database, sulforhodamine B; read-out: Cytotoxic IC50; cited from earlier work
[14] = system: T-47D; settings: NCI-60 database, sulforhodamine B, read-out: Cytotoxic IC50; cited from earlier work
[15] = system: DU-145; settings: DU-145, NCI-60 database, sulforhodamine B; read-out: Cytotoxic IC50; cited from earlier work
[16] = system: HS 578T; settings: NCI-60 database, sulforhodamine B, read-out: Cytotoxic IC50; cited from earlier work
[17] = system: EKVX; settings: NCI-60 database, sulforhodamine B, read-out: Cytotoxic IC50; cited from earlier work
[18] = system: SK-MEL-28; settings: SK-MEL-28, NCI-60 database, sulforhodamine B; read-out: Cytotoxic IC50; cited from earlier work
[19] = In vivo toxicity (dose-finding) studies; parameters: species or system FVB mice; settings: 0.25 mg/kg given repeatedly, later experiments
[20] = system: HT-29 human colon adenocarcinoma cells; settings: reported by Mező; cited from earlier work
[21] = system: MCF7; experiment: In vitro cytotoxicity (PrestoBlue); settings: Homo sapiens, MCF7, 72 h, read-out: Cytotoxic IC50
Procedure: Cells were seeded in 40 μl medium on 384 well plates by an automatic liquid handling machine (Hamilton StarLet) in a density of 2500 cells/well. Adherent cells were cultured for 24 h before the addition of the compounds, while drugs were added to non-adherent cells 2 h after cell seeding. The drugs were serially diluted, and dispensed in an additional 20 μl. Cells were incubated for an additional 72 h, cytotoxicity was assessed by the PrestoBlue viability reagent (Thermo Fisher). Experiments were repeated at least 3 times.

[22] = In vivo toxicity (dose-finding) studies; parameters: species or system FVB mice; settings: for Mortality (%) / Survival: single iv
Description: PyDau and LiPyDau dose-finding studies were done using 10 weeks old FVB mice, by single intravenous injections of different doses of the compounds (3 mouse/dose) via the tail vein. The status of the mice was monitored daily for signs of pain or discomfort. Mice were euthanized at 20% body weight loss or at a low score (1 or 2) on the Body Condition Scoring scale. Survival was followed for 30 days and the Maximum Tolerable Dose (MTD) was defined as the highest dose where 100% survival was observed.

[23] = Storage stability of PyDau; format: physicochemical; settings: monomer form, −20° C.
Procedure: 2-pyrrolinodoxorubicin (PyDox) TFA salt was developed in 1996 (Nagy A. et al.; Proc. Natl. Acad. Sci. U.S.A. 93 (1996). 2464-2469). In the first step Nagy et al. applied 4-iodobutyraldehyde, that was prepared from 2-(3-chloropropyl)-1,3-dioxolane followed by Shiff-base formation and cyclization. The synthesis of 4-iodobutyraldehyde—which is the key step for efficient synthesis-was later improved by Studenovsky et al. (Eur. J. Pharm. Sci. 42 (2011). 156-163). […] Therefore, a new approach was investigated for the preparation of PyDau. First, the stable and storable 4-bromobutyraldehyde was applied for the synthesis. The reaction was carried out in DCM in the presence of excess DIPEA under nitrogen atmosphere at room temperature (RT) for 10 h.

COc1cccc2c1C(=O)c1c(O)c3c(c(O)c1C2=O)C[C@@](O)(C(=O)CO)C[C@@H]3O[C@H]1C[C@H](N)[C@H](O)[C@H](C)O1 [DOX, doxorubicin]
Response / overall survival [1]: largely ineffective
IC50 [2]: 553 nM
IC50 [3]: 66.1 nM
IC50 [4]: 212 nM
IC50 [5]: 171 nM
IC50 [6]: 460 nM
IC50 [7]: 70.1 nM
IC50 ([8]; read-out: Cytotoxic IC50, av. breast): 190 nM
IC50 ([8]; read-out: Cytotoxic IC50, av. colorectal): 296 nM
IC50 ([8]; read-out: Cytotoxic IC50, av. leukaemia): 49.8 nM
IC50 ([8]; read-out: Cytotoxic IC50, av. lung): 221 nM
IC50 ([8]; read-out: Cytotoxic IC50, av. melanoma): 177 nM
IC50 ([8]; read-out: Cytotoxic IC50, av. ovarian): 3650 nM
IC50 ([8]; read-out: Cytotoxic IC50, av. prostatic): 173 nM
IC50 ([8]; read-out: Cytotoxic IC50, av. renal): 247 nM
IC50 [9]: 60.4 nM
IC50 [10]: 2450 nM
IC50 [11]: 150 nM
IC50 [12]: 20 nM
IC50 [13]: 181 nM
IC50 [14]: 83 nM
IC50 [15]: 100 nM
IC50 [16]: 188 nM
IC50 [17]: 484 nM
IC50 [18]: 242 nM

COc1cccc2c1C(=O)c1c(O)c3c(c(O)c1C2=O)C[C@@](O)(C(C)=O)C[C@@H]3O[C@H]1C[C@H]2[C@H](OC3CCCN32)[C@H](C)O1 (stereo partly drawn) [PyDau, 2-deamino-2-pyrrolino-daunorubicin]
Toxicity when given repeatedly [19]: still toxic
IC50 [20]: 0.2 nM
IC50 [21]: 5.73 nM
Lethality ([22]; 3, 2, 1 and 0.5 mg/kg): lethal
Mortality (%) ([22]; PyDau dose 0.05 mg/kg): 0%
Survival ([22]; PyDau dose 0.05 mg/kg): >30 days
Mortality (%) ([22]; PyDau dose 0.1 mg/kg): 0%
Survival ([22]; PyDau dose 0.1 mg/kg): >30 days
Mortality (%) ([22]; PyDau dose 0.17 mg/kg): 0%
Survival ([22]; PyDau dose 0.17 mg/kg): >30 days
Mortality (%) ([22]; PyDau dose 0.25 mg/kg): 0%
Survival ([22]; PyDau dose 0.25 mg/kg): >30 days
Mortality (%) ([22]; PyDau dose 0.5 mg/kg): 100%
Survival ([22]; PyDau dose 0.5 mg/kg): 11 days
Mortality (%) ([22]; PyDau dose 1 mg/kg): 100%
Survival ([22]; PyDau dose 1 mg/kg): 4 days
Mortality (%) ([22]; PyDau dose 2 mg/kg): 100%
Survival ([22]; PyDau dose 2 mg/kg): 2 days
Mortality (%) ([22]; PyDau dose 3 mg/kg): 100%
Survival ([22]; PyDau dose 3 mg/kg): 2 days
Safety window ([22]; dose-finding studies in mice): too narrow
MTD at 30 days ([22]; mouse, in vivo, single intravenous injection, FVB mice, highest dose with 100% survival over 30 days, read-out: Maximum Tolerable Dose (MTD)): 0.25 mg/kg
Stability on storage [23]: stable for long time
